Holding throughout (type): biochemical
Assay [1] deals with T1, Aβ 1-42 fibrils (Homo sapiens, UniProt P05067).
T1 construct: purchased Bachem Inc
Description: Thioflavin T fluorometry - disruption of pre-formed Aβ 1-42 Alzheimer's fibrils. The note with it: 25 μM pre-fibrillized Aβ 1-42, 37° C., 3 days, read-out: % Inhibition Aβ (result ± S.D.). The text has this:
In one study, Thioflavin T fluorometry was used to determine the effects of the compounds, and of EDTA (as a negative control). In this assay Thioflavin T binds specifically to fibrillar amyloid, and this binding produces a fluorescence enhancement at 485 nm that is directly proportional to the amount of amyloid fibrils formed. The higher the fluorescence, the greater the amount of amyloid fibrils formed (Naki et al., Lab. Invest. 65:104-110, 1991; Levine III, Protein Sci. 2:404-410, 1993; Amyloid: Int. J. Exp. Clin. Invest. 2:1-6, 1995).
(§1) In this study, 25 μM of pre-fibrillized Aβ 1-42 (Bachem Inc) was incubated at 37° C. for 3 days either alone, or in the presence of one of the compounds or EDTA (at Aβ:test compound weight ratios of 1:1, 1:0.1, 1:0.01 or 1:0.001). Following 3-days of co-incubation, 50 μl of each incubation mixture was transferred into a 96-well microtiter plate containing 150 μl of distilled water and 50 μl of a Thioflavin T solution (i.e. 500 mM Thioflavin T in 250 mM phosphate buffer, pH 6.8). The fluorescence was read at 485 nm (444 nm excitation wavelength) using an ELISA plate fluorometer after subtraction with buffer alone or compound alone, as blank.

In assay [2] the target is T2, IAPP fibrils (Homo sapiens, UniProt P10997).
T2 construct: purchased Bachem Inc
T2 sequence (P10997 34-70 limits assumed): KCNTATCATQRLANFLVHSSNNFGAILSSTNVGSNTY
Nature of the assay: Thioflavin T fluorometry - disruption of type 2 diabetes IAPP fibrils. The conditions noted are these: 25 μM pre-fibrillized IAPP, 37° C., 3 days, read-out: % Inhibition IAPP (result ± S.D.). The method, then: In this assay Thioflavin T binds specifically to fibrillar amyloid, and this binding produces a fluorescence enhancement at 485 nm that is directly proportional to the amount of IAPP fibrils present. The higher the fluorescence, the greater the amount of IAPP fibrils present (Naki et al, Lab. Invest. 65:104-110, 1991; Levine III, Protein Sci. 2:404-410, 1993; Amyloid: Int. J. Exp. Clin. Invest. 2:1-6, 1995).
as §1, with “IAPP” for “Aβ 1-42”, “IAPP:test” for “Aβ:test”

In assay [3] the target is T3, monomeric Aβ 1-42 (Homo sapiens, UniProt P05067).
T3 construct: purchased Bachem Inc
T3 sequence (P05067 672-713): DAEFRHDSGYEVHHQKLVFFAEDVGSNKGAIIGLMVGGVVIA
Nature of the assay: SDS-PAGE/Western blot of Aβ 1-42 after incubation with compounds. The note with it: 25 μM pre-fibrillized Aβ 1-42, 37° C., 3 days, 0.2 μm filtrate, antibody 6E10. The method, then:
In this latter study, triplicate samples of pre-fibrillized Aβ 1-42 (25 μM) was incubated at 37° C. for 3 days, alone or in the presence of the compounds or EDTA. Five micrograms of each sample was then filtered through a 0.2 μm filter. Protein recovered from the filtrate was then loaded, and ran on a 10-20% Tris-Tricine SDS-PAGE, blotted to nitrocellulose and detected using an Aβ-antibody (clone 6E10; Senetek).

The target of assay [4] is T2, IAPP fibrils. Nature of the assay: Congo red binding assay with IAPP fibrils. The conditions noted are these: 3-day incubation. The method, then: In the Congo red binding assay the ability of a given test compound to alter amyloid (in this case, IAPP) binding to Congo red is quantified. In this assay, IAPP and test compounds were incubated for 3 days and then vacuum filtered through a 0.2 μm filter. The amount of IAPP retained in the filter was then quantitated following staining of the filter with Congo red. After appropriate washing of the filter, any lowering of the Congo red color on the filter in the presence of the test compound (compared to the Congo red staining of the amyloid protein in the absence of the test compound) was indicative of the test compound's ability to diminish/alter the amount of aggregated and congophilic IAPP.
In the study, the ability of IAPP fibrils to bind Congo red in the absence or presence of increasing amounts of the compounds or EDTA (at IAPP:test compound weight ratios of 1:1, 1:0.1, 1:0.01 or 1:0.001) was determined.

Assay [5] has as its target T4, NAC fibrils (Homo sapiens, UniProt P37840).
T4 construct: NAC is a 35-amino acid fragment of α-synuclein; purchased Bachem Inc
Nature of the assay: Thioflavin T fluorometry - disruption of Parkinson's disease NAC fibrils. The note with it: 3 days; for inhibition: 25 μM pre-fibrillized NAC, 37° C., read-out: % Inhibition NAC (result ± S.D.). The method, then: In this assay, Thioflavin T binds specifically to NAC fibrils, and this binding produces a fluorescence enhancement at 485 nm that is directly proportional to the amount of NAC fibrils present. The higher the fluorescence, the greater the amount of NAC fibrils present (Naki et al, Lab. Invest. 65:104-110, 1991; Levine III, Protein Sci. 2:404-410, 1993; Amyloid: Int. J. Exp. Clin. Invest. 2:1-6, 1995).
In this study, 25 μM of pre-fibrillized NAC (Bachem Inc) was incubated at 37° C. for 3 days either alone or in the presence of dihydroxy synthetic analog compounds #1, 3, 23, 26, 52, 63, 66, 67, or EDTA (at NAC:test compound weight ratios of 1:1, 1:0.1, 1:0.01 or 1:0.001). Following 3-days of co-incubation, 50 βl of each incubation mixture was transferred into a 96-well microtiter plate containing 150 μl of distilled water and 50 μl of a Thioflavin T solution (i.e. 500 mM Thioflavin T in 250 mM phosphate buffer, pH 6.8). The fluorescence was read at 485 nm (444 nm excitation wavelength) using an ELISA plate fluorometer after subtraction with buffer alone or compound alone, as blank.

Where [6] appears, read: Aβ:test compound wt/wt ratio 1:0.001.
Setting [7] is: Aβ:test compound wt/wt ratio 1:0.01.
[8] abbreviates: Aβ:test compound wt/wt ratio 1:0.1.
Setting [9] is: Aβ:test compound wt/wt ratio 1:1.
[10] abbreviates: IAPP:test compound wt/wt ratio 1:0.001.
Where [11] appears, read: IAPP:test compound wt/wt ratio 1:0.01.
Where [12] appears, read: IAPP:test compound wt/wt ratio 1:0.1.
[13] abbreviates: IAPP:test compound wt/wt ratio 1:1.

By inhibition is commonly meant how much of the control response was suppressed.

Read-outs that look alike come from different tables or passages of the source.

T1 sequence (P05067 672-713): as above

With `Oc1ccc(CNCc2ccc(O)c(O)c2)cc1O` [Compound 73, bis(3,4-dihydroxybenzyl)amine], the inhibition in assay [1] (setting [6]) worked out at 0%; in assay [1] (setting [7]) it was 28.7 ± 10.3%; in assay [1] (setting [8]), 70.9 ± 3.04%; in assay [1] (setting [9]) it was 99.4 ± 0.42%.
In the case of `Oc1ccc(CN2CCN(Cc3ccc(O)c(O)c3)CC2)cc1O` [Compound 9, 1,4-bis(3,4-dihydroxybenzyl)piperazine], the inhibition in assay [1] (setting [6]) stood at 10.6 ± 0.93%; in assay [1] (setting [7]), 2 ± 10.8%; in assay [1] (setting [8]), 34.9 ± 1.69%; in assay [1] (setting [9]), 95.1 ± 0.13%.
As for `Oc1ccc(CN(Cc2ccc(O)c(O)c2)Cc2ccc(O)c(O)c2)cc1O` [Compound 75, tris(3,4-dihydroxybenzyl)amine], the inhibition in assay [1] (setting [6]) stood at 17 ± 4.2%; in assay [1] (setting [7]) it was 31.6 ± 4.74%; in assay [1] (setting [8]), 84.4 ± 0.94%; in assay [1] (setting [9]) it was 99 ± 0.63%; in assay [2] (setting [10]), 6 ± 6.46%; in assay [2] (setting [11]), 43.9 ± 5.34%. The results for the inhibition in assay [2] (setting [12]) and in assay [2] (setting [13]) were 90 ± 0.27% and 100 ± 0.35%, respectively. Moreover, the “detection of Aβ 1-42 monomers (~4 kilodalton band) on Western blot” value in assay [3] is recorded as “not detected”. Further, the “% Inhibition IAPP (result ± S.D.), Congo red binding” value (from here on “% Inhibition IAPP”) in assay [4] (setting [10]) stood at 2.9 ± 0.69%; in assay [4] (setting [11]), 11.3 ± 2.24%; in assay [4] (setting [12]), 7.4 ± 0.70%; in assay [4] (setting [13]), 49.0 ± 1.17%.
With `O=C(NCc1ccc(O)c(O)c1)c1ccc(O)c(O)c1` [Compound 52, 3,4-dihydroxybenzoic acid 3,4-dihydroxybenzylamide], the inhibition was determined as 0% in assay [1] (setting [6]); 12.1 ± 0.78% in assay [1] (setting [7]); 53.6 ± 2.42% in assay [1] (setting [8]); 93.7 ± 0.41% in assay [1] (setting [9]); 16 ± 8.42% in assay [2] (setting [10]); 49.2 ± 4.47% in assay [2] (setting [11]). Moreover, the inhibition in assay [2] (setting [12]) was 86.9 ± 3.09%; in assay [2] (setting [13]), 97.9 ± 0.19%; in assay [5] (NAC:test compound wt/wt ratio 1:0.001), 13.8 ± 10.5%; in assay [5] (NAC:test compound wt/wt ratio 1:0.01), 79.6 ± 6.43%; in assay [5] (NAC:test compound wt/wt ratio 1:0.1) it was 89.2 ± 1.49%; in assay [5] (NAC:test compound wt/wt ratio 1:1) it was 99.7 ± 1.93%. Moreover, in assay [5] (all concentrations tested (ratios 1:1 to 1:0.001)), the “disruption/disassembly of pre-formed NAC fibrils (in words)” value was “dose-dependent disruption/disassembly”. Also, the “% Inhibition IAPP” value turned out to be 10.2 ± 0.52% in assay [4] (setting [10]), 11.0 ± 3.27% in assay [4] (setting [11]), 11.5 ± 1.21% in assay [4] (setting [12]) and 31.3 ± 0.27% in assay [4] (setting [13]).
For `Cc1nc(-c2ccc(O)c(O)c2)cc(-c2ccc(O)c(O)c2)c1C#N` [Compound 8, 4,6-bis(3,4-dihydroxyphenyl)-3-cyano-2-methylpyridine], the inhibition came to 4.9 ± 2.27% in assay [1] (setting [6]); 24.7 ± 3.51% in assay [1] (setting [7]); 65.5 ± 0.17% in assay [1] (setting [8]); 70.8 ± 2.57% in assay [1] (setting [9]); 11.4 ± 12.8% in assay [2] (setting [10]); 29.6 ± 5.97% in assay [2] (setting [11]). The inhibition was 67.8 ± 1.74% in assay [2] (setting [12]) and 72.8 ± 1.77% in assay [2] (setting [13]). Also, the “% Inhibition IAPP” value came out at 0.0 ± 6.46% in assay [4] (setting [10]), 7.2 ± 2.27% in assay [4] (setting [11]), 0.0 ± 2.94% in assay [4] (setting [12]) and 0.0 ± 2.84% in assay [4] (setting [13]).
On to `O=C(CCc1ccc(O)c(O)c1)Nc1ccc(O)c(O)c1` [Compound 57, 3-(3,4-dihydroxyphenyl)propionic acid 3,4-dihydroxyanilide], for which the inhibition in assay [1] (setting [6]) was determined as 17.7 ± 7.43%; in assay [1] (setting [7]), 19 ± 6.33%; in assay [1] (setting [8]), 60.2 ± 3.12%; in assay [1] (setting [9]), 88.4 ± 2.73%; in assay [2] (setting [10]) it was 1.9 ± 5.24%; in assay [2] (setting [11]), 37.3 ± 0.78%. Also, the inhibition in assay [2] (setting [12]) was 73.2 ± 1.19%; in assay [2] (setting [13]) it was 94.1 ± 0.46%. The “% Inhibition IAPP” value in assay [4] (setting [10]) is given as 4.5 ± 0.64%; in assay [4] (setting [11]), 8.5 ± 3.19%; in assay [4] (setting [12]), 8.9 ± 3.90%; in assay [4] (setting [13]), 15.7 ± 3.77%.

The record behind these values is patent publication US20070276034A1, “Compounds, compositions and methods for the treatment of synucleinopathies” (priority 2002, published 2007).
